Key:
[1] = tested on: Mycobacterium tuberculosis (M. tuberculosis Kurono); test: Antibacterial test (agar dilution method), M. tuberculosis Kurono; type: cell-based; conditions: 7H11 agar medium, about 10^6 CFU/mL, 37° C. for 14 days; for MIC: Mycobacterium tuberculosis, 336 h, read-out: Minimum inhibitory concentration (MIC) kurono

O=C1CCc2c(OC[C@@]3(O)CCN(c4c(F)cc(Cl)cc4F)C[C@@H]3F)ccc(F)c2N1 [Example 449, 5-{[(3S,4S)-1-(4-Chloro-2,6-difluorophenyl)-3-fluoro-4-hydroxypiperidin-4-yl]methoxy}-8-fluoro-3,4-dihydroquinolin-2(1H)-one]
melting point: 209 to 210 °C
MIC [1]: < 0.39 µg/mL

O=C1CCc2c(OCC3(O)CCN(c4ccc(OCc5ccc(OC(F)(F)F)cc5)cc4F)CC3)ccc(F)c2N1 [Example 152, 8-Fluoro-5-{[1-(2-fluoro-4-{[4-(trifluoromethoxy)benzyl]oxy}phenyl)-4-hydroxypiperidin-4-yl]methoxy}-3,4-dihydroquinolin-2(1H)-one]
melting point: 199.9 to 200.5 °C
MIC [1]: < 0.39 µg/mL

CCOc1ccc(N2CCC(O)(COc3ccc(F)c4c3CCC(=O)N4)CC2)c(F)c1 [Example 85, 5-{[1-(4-Ethoxy-2-fluorophenyl)-4-hydroxypiperidin-4-yl]methoxy}-8-fluoro-3,4-dihydroquinolin-2(1H)-one]
melting point: 196 to 196.1 °C
MIC [1]: < 0.39 µg/mL

O=C1CCc2c(OC[C@@]3(O)CCN(c4c(F)cc(Cl)cc4F)C[C@H]3F)ccc(F)c2N1 [Example 446, 5-{[(3R,4S)-1-(4-Chloro-2,6-difluorophenyl)-3-fluoro-4-hydroxypiperidin-4-yl]methoxy}-8-fluoro-3,4-dihydroquinolin-2(1H)-one]
melting point: 224 to 225 °C
MIC [1]: < 0.39 µg/mL

O=C1CCc2c(OCC3(O)CCN(c4ccc(Cl)cc4F)CC3)ccc(F)c2N1 [Example 52, 5-{[1-(4-Chloro-2-fluorophenyl)-4-hydroxypiperidin-4-yl]methoxy}-8-fluoro-3,4-dihydroquinolin-2(1H)-one]
melting point: 190.6 to 190.7 °C
MIC [1]: < 0.39 µg/mL

O=C1CCc2c(OC[C@]3(O)CCN(c4nc5ccc(Cl)cc5cc4Br)C[C@H]3O)ccc(F)c2N1 [Example 288, 5-{[(3R,4R)-1-(3-Bromo-6-chloroquinolin-2-yl)-3,4-dihydroxypiperidin-4-yl]methoxy}-8-fluoro-3,4-dihydroquinolin-2(1H)-one]
MIC [1]: < 0.39 µg/mL

O=C1CCc2c(OC[C@]3(O)CC[C@@H](c4ccc(Cl)cc4F)C[C@H]3O)ccc(F)c2N1 (relative stereo) [Example 471, 5-{[(1R*,2R*,4R*)-4-(4-Chloro-2-fluorophenyl)-1,2-dihydroxycyclohexyl]methoxy}-8-fluoro-3,4-dihydroquinolin-2(1H)-one]
MIC [1]: < 0.39 µg/mL

N#CC1(c2ccc(Cl)cc2F)CCC(O)(COc2ccc(F)c3c2CCC(=O)N3)CC1 (stereo not drawn) [Example 476, trans-1-(4-Chloro-2-fluorophenyl)-4-{[(8-fluoro-2-oxo-1,2,3,4-tetrahydroquinolin-5-yl)oxy]methyl}-4-hydroxycyclohexanecarbonitrile]
Minimum inhibitory concentration (MIC) kurono [1]: <0.39 µg/mL

NC1(COc2ccc(Cl)c3c2CCC(=O)N3)CCN(c2ccc(Cl)cc2F)CC1 [Example 14, 5-{[4-Amino-1-(4-chloro-2-fluorophenyl)piperidin-4-yl]methoxy}-8-chloro-3,4-dihydroquinolin-2(1H)-one]
MIC [1]: < 0.39 µg/mL

O=C1CCc2c(SCC3(O)CCN(c4ccc(Cl)cc4F)CC3)ccc(F)c2N1 [Example 460, 5-({[1-(4-Chloro-2-fluorophenyl)-4-hydroxypiperidin-4-yl]methyl}sulfanyl)-8-fluoro-3,4-dihydroquinolin-2(1H)-one]
melting point: 171 to 172 °C
MIC [1]: < 0.39 µg/mL

O=C1CCc2c(OC[C@]3(O)CCN(c4c(F)cc(Cl)cc4F)C[C@@H]3O)ccc(F)c2N1 [Example 361, 5-{[(3S,4R)-1-(4-Chloro-2,6-difluorophenyl)-3,4-dihydroxypiperidin-4-yl]methoxy}-8-fluoro-3,4-dihydroquinolin-2(1H)-one]
MIC [1]: < 0.39 µg/mL

O=c1ccc2c(OC[C@]3(O)CCN(c4ccc(Br)cc4F)C[C@H]3O)ccc(F)c2[nH]1 (relative stereo) [Example 369, 5-{[(3R*,4R*)-1-(4-Bromo-2-fluorophenyl)-3,4-dihydroxypiperidin-4-yl]methoxy}-8-fluoroquinolin-2(1H)-one]
MIC [1]: < 0.39 µg/mL

O=C1CCc2c(OCC3(O)CCN(c4ncc(Cl)cc4Cl)CC3)ccc(Cl)c2N1 [Example 139, 8-Chloro-5-{[1-(3,5-dichloropyridin-2-yl)-4-hydroxypiperidin-4-yl]methoxy}-3,4-dihydroquinolin-2(1H)-one]
melting point: 218 °C
MIC [1]: < 0.39 µg/mL

O=C1CCc2c(cccc2OC[C@]2(O)CCN(c3ccc(Br)cc3F)C[C@H]2O)N1 [Example 347, 5-{[(3R,4R)-1-(4-Bromo-2-fluorophenyl)-3,4-dihydroxypiperidin-4-yl]methoxy}-3,4-dihydroquinolin-2(1H)-one]
melting point: 226 to 227 °C
MIC [1]: < 0.39 µg/mL

O=C1CCc2c(OC[C@]3(O)CCN(c4ncc(Cl)cc4Cl)C[C@H]3O)ccc(F)c2N1 [Example 251, 5-{[(3R,4R)-1-(3,5-Dichloropyridin-2-yl)-3,4-dihydroxypiperidin-4-yl]methoxy}-8-fluoro-3,4-dihydroquinolin-2(1H)-one]
MIC [1]: < 0.39 µg/mL

O=C1CCc2c(OC[C@]3(O)CC[C@@](O)(c4ccc(Cl)cc4F)C[C@H]3O)ccc(F)c2N1 (relative stereo) [Example 473, 5-{[(1R*,2R*,4S*)-4-(4-Chloro-2-fluorophenyl)-1,2,4-trihydroxycyclohexyl]methoxy}-8-fluoro-3,4-dihydroquinolin-2(1H)-one]
MIC [1]: < 0.39 µg/mL

O=C1CCc2c(OC[C@]3(O)CCN(c4c(F)cc(Cl)cc4F)C[C@H]3O)ccc(F)c2N1 [Example 260, 5-{[(3R,4R)-1-(4-Chloro-2,6-difluorophenyl)-3,4-dihydroxypiperidin-4-yl]methoxy}-8-fluoro-3,4-dihydroquinolin-2(1H)-one]
MIC [1]: < 0.39 µg/mL

O=C1CCc2c(OCC3(O)CCC(c4ccc(Cl)cc4F)CC3)ccc(F)c2N1 (stereo not drawn) [Example 469, 5-{[cis-4-(4-Chloro-2-fluorophenyl)-1-hydroxycyclohexyl]methoxy}-8-fluoro-3,4-dihydroquinolin-2(1H)-one]
Minimum inhibitory concentration (MIC) kurono [1]: <0.39 µg/mL

NC1(COc2ccc(Cl)c3[nH]c(=O)ccc23)CCN(c2ccc(Cl)cc2F)CC1 [Example 17, 5-{[4-Amino-1-(4-chloro-2-fluorophenyl)piperidin-4-yl]methoxy}-8-chloroquinolin-2(1H)-one]
MIC [1]: < 0.39 µg/mL

Cc1c(F)cc(OCC2(O)CCN(c3cc(F)c(Cl)cc3Cl)CC2)c2c1NC(=O)CC2 [Example 206, 5-{[1-(2,4-Dichloro-5-fluorophenyl)-4-hydroxypiperidin-4-yl]methoxy}-7-fluoro-8-methyl-3,4-dihydroquinolin-2(1H)-one]
MIC [1]: < 0.39 µg/mL

O=C1CCc2c(OCC3(O)CCC(O)(c4ccc(Cl)cc4F)CC3)ccc(F)c2N1 (stereo not drawn) [Example 465, 5-{[trans-4-(4-Chloro-2-fluorophenyl)-1,4-dihydroxycyclohexyl]methoxy}-8-fluoro-3,4-dihydroquinolin-2(1H)-one]
Minimum inhibitory concentration (MIC) kurono [1]: <0.39 µg/mL

O=C1CCc2c(OCC3(O)CCN(c4c(F)cc(F)cc4F)CC3)cc(F)c(Cl)c2N1 [Example 214, 8-Chloro-7-fluoro-5-{[4-hydroxy-1-(2,4,6-trifluorophenyl)piperidin-4-yl]methoxy}-3,4-dihydroquinolin-2(1H)-one]
MIC [1]: < 0.39 µg/mL

O=C1CCc2c(OCC3(O)CCN(c4ccc(Br)cc4F)CC3)cc(F)c(F)c2N1 [Example 130, 5-{[1-(4-Bromo-2-fluorophenyl)-4-hydroxypiperidin-4-yl]methoxy}-7,8-difluoro-3,4-dihydroquinolin-2(1H)-one]
MIC [1]: < 0.39 µg/mL

O=C1CCc2c(OC[C@@]3(O)CCN(c4ccc(Cl)cc4F)C[C@@H]3O)ccc(F)c2N1 [Example 265, 5-{[(3S,4S)-1-(4-Chloro-2-fluorophenyl)-3,4-dihydroxypiperidin-4-yl]methoxy}-8-fluoro-3,4-dihydroquinolin-2(1H)-one]
MIC [1]: < 0.39 µg/mL

O=C1CCc2c(OC[C@H]3CCN(c4ccc(Cl)cc4F)C[C@@H]3O)ccc(F)c2N1 (relative stereo) [Example 419, 5-{[(3R*,4R*)-1-(4-Chloro-2-fluorophenyl)-3-hydroxypiperidin-4-yl]methoxy}-8-fluoro-3,4-dihydroquinolin-2(1H)-one]
MIC [1]: < 0.39 µg/mL

COC1(c2ccc(Cl)cc2F)CCC(O)(COc2ccc(F)c3c2CCC(=O)N3)CC1 (stereo not drawn) [Example 477, 5-{[trans-4-(4-Chloro-2-fluorophenyl)-1-hydroxy-4-methoxycyclohexyl]methoxy}-8-fluoro-3,4-dihydroquinolin-2(1H)-one]
Minimum inhibitory concentration (MIC) kurono [1]: <0.39 µg/mL

CCOC(=O)O[C@@H]1CN(c2c(F)cc(Cl)cc2F)CC[C@@]1(O)COc1ccc(F)c2c1CCC(=O)N2 [Example 450, (3R,4R)-1-(4-chloro-2,6-difluorophenyl)-4-{[(8-fluoro-2-oxo-1,2,3,4-tetrahydroquinolin-5-yl)oxy]methyl}-4-hydroxypiperidin-3-yl ethyl carbonate]
MIC [1]: < 0.39 µg/mL

O=C1CCc2c(OCC3(O)CCN(c4ccc(Cl)cc4)CC3)ccc(F)c2N1 [Example 49, 5-{[1-(4-Chlorophenyl)-4-hydroxypiperidin-4-yl]methoxy}-8-fluoro-3,4-dihydroquinolin-2(1H)-one]
MIC [1]: < 0.39 µg/mL

NC1(COc2ccc(F)c3c2CCC(=O)N3)CCN(c2ncc(Cl)cc2Cl)CC1 [Example 1, 5-{[4-Amino-1-(3,5-dichloropyridin-2-yl)piperidin-4-yl]methoxy}-8-fluoro-3,4-dihydroquinolin-2(1H)-one]
MIC [1]: < 0.39 µg/mL

O=C1CCc2c(NCC3(O)CCN(c4ncc(Cl)cc4Cl)CC3)ccc(F)c2N1 [Example 372, 5-({[1-(3,5-Dichloropyridin-2-yl)-4-hydroxypiperidin-4-yl]methyl}amino)-8-fluoro-3,4-dihydroquinolin-2(1H)-one]
MIC [1]: < 0.39 µg/mL

O=C1CCc2c(cc(F)cc2OCC2(O)CCN(c3ccc(Cl)cc3F)CC2)N1 [Example 194, 5-{[1-(4-Chloro-2-fluorophenyl)-4-hydroxypiperidin-4-yl]methoxy}-7-fluoro-3,4-dihydroquinolin-2(1H)-one]
MIC [1]: < 0.39 µg/mL
